Test results taken from paper PMC11822212, “High-throughput screening identifies Aurora kinase B as a critical therapeutic target for Merkel cell carcinoma” (Nature Communications, 2025).
Values joined by “and” are separate entries in the source; they are usually repeats but may differ in a detail not shown here. Equal entries are not always repeated. Structures can show the parent of a compound that is named as a salt.

Tests used:
Experiment in all cases: qHTS cell viability (CellTiter-Glo, 72 h; primary and follow-up small molecule screen)
Format in all cases: cell-based, human
MCC13 cells (VN-MCC) = details: for Area under the dose-response curve (AUC) MCC13 Replicate 1 / Area under the dose-response curve (AUC) MCC13 Replicate 2 / Area under the dose-response curve (AUC) MCC13 Replicate 3: follow-up screen
MKL-1 cells (VP-MCC) = details: for Area under the dose-response curve (AUC) MKL-1 Replicate 1 / Area under the dose-response curve (AUC) MKL-1 Replicate 2 / Area under the dose-response curve (AUC) MKL-1 Replicate 3: follow-up screen
MKL-2 cells (VP-MCC) = details: for Area under the dose-response curve (AUC) MKL-2 Replicate 1 / Area under the dose-response curve (AUC) MKL-2 Replicate 2 / Area under the dose-response curve (AUC) MKL-2 Replicate 3: follow-up screen
WAGA cells (VP-MCC) = details: for Area under the dose-response curve (AUC) WAGA Replicate 1 / Area under the dose-response curve (AUC) WAGA Replicate 2 / Area under the dose-response curve (AUC) WAGA Replicate 3: follow-up screen
MCC26 cells (VN-MCC) = details: for Area under the dose-response curve (AUC) MCC26 Replicate 1 / Area under the dose-response curve (AUC) MCC26 Replicate 2 / Area under the dose-response curve (AUC) MCC26 Replicate 3: follow-up screen
UISO cells (VN-MCC) = details: for Area under the dose-response curve (AUC) UISO Replicate 1 / Area under the dose-response curve (AUC) UISO Replicate 2 / Area under the dose-response curve (AUC) UISO Replicate 3: follow-up screen

| Structure (SMILES) | Area under the dose-response curve (AUC) MCC13 Replicate 1 (MCC13 cells (VN-MCC)) | Area under the dose-response curve (AUC) MCC13 Replicate 2 (MCC13 cells (VN-MCC)) | Area under the dose-response curve (AUC) MCC13 Replicate 3 (MCC13 cells (VN-MCC)) | Area under the dose-response curve (AUC) MKL-1 Replicate 1 (MKL-1 cells (VP-MCC)) | Area under the dose-response curve (AUC) MKL-1 Replicate 2 (MKL-1 cells (VP-MCC)) | Area under the dose-response curve (AUC) MKL-1 Replicate 3 (MKL-1 cells (VP-MCC)) | Area under the dose-response curve (AUC) MKL-2 Replicate 1 (MKL-2 cells (VP-MCC)) | Area under the dose-response curve (AUC) MKL-2 Replicate 2 (MKL-2 cells (VP-MCC)) | Area under the dose-response curve (AUC) MKL-2 Replicate 3 (MKL-2 cells (VP-MCC)) | Area under the dose-response curve (AUC) WAGA Replicate 1 (WAGA cells (VP-MCC)) | Area under the dose-response curve (AUC) WAGA Replicate 2 (WAGA cells (VP-MCC)) | Area under the dose-response curve (AUC) WAGA Replicate 3 (WAGA cells (VP-MCC)) | Area under the dose-response curve (AUC) MCC26 Replicate 1 (MCC26 cells (VN-MCC)) | Area under the dose-response curve (AUC) MCC26 Replicate 2 (MCC26 cells (VN-MCC)) | Area under the dose-response curve (AUC) MCC26 Replicate 3 (MCC26 cells (VN-MCC)) | Area under the dose-response curve (AUC) UISO Replicate 1 (UISO cells (VN-MCC)) | Area under the dose-response curve (AUC) UISO Replicate 2 (UISO cells (VN-MCC)) | Area under the dose-response curve (AUC) UISO Replicate 3 (UISO cells (VN-MCC)) | further results |
| --- | --- | --- | --- | --- | --- | --- | --- | --- | --- | --- | --- | --- | --- | --- | --- | --- | --- | --- | --- |
| CC(=O)[C@]1(O)Cc2c(O)c3c(c(O)c2[C@@H](O[C@H]2C[C@H](N)[C@H](O)[C@H](C)O2)C1)C(=O)c1ccccc1C3=O [Idarubicin hydrochloride] | 321.5 | 353.4 | 356.2 | 222.7 | 242.3 | 233.3 | 203.6 | 200.3 | 265.0 | 205.3 | 258.0 | 233.3 | 293.6 | 292.8 | 227.6 | 184.7 | 180.9 | 186.4 |  |
| COCc1c(C(C)C)nc(C(C)C)c(/C=C/[C@@H](O)C[C@@H](O)CC(=O)O)c1-c1ccc(F)cc1 [Cerivastatin sodium] | 319.0 | 316.5 | 320.7 | 337.1 | 326.8 | 335.0 | 362.8 | 331.4 | 356.5 | 385.6 | 358.6 | 363.6 | 312.2 | 285.4 | 322.6 | 255.3 | 261.7 | 240.8 |  |
| O=c1cc(-c2ccc(O)c(O)c2)oc2cc(O)cc(O)c12 [Luteolin] | 522.6 | 523.6 | 493.6 | 484.8 | 451.1 | 471.1 | 469.9 | 500.3 | 460.5 | 542.7 | 525.5 | 485.9 | 469.7 | 436.1 | 492.5 | 505.5 | 498.3 | 457.3 |  |
| O=c1c(O)c(-c2ccccc2)oc2cc(O)cc(O)c12 [Galangin] | 503.7 | 491.8 | 491.4 | 490.3 | 490.8 | 492.0 | 477.3 | 508.2 | 500.6 | 519.0 | 499.5 | 488.3 | 449.4 | 457.3 | 461.1 | 481.0 | 489.8 | 457.6 |  |
| C[C@]12CCC(=NOCCN)C[C@@H]1C(=O)C[C@@H]1[C@@H]2CC[C@]2(C)C(=O)CC[C@@H]12 [PST-2744 (Istaroxime)] |  |  |  |  |  |  |  |  |  |  |  |  |  |  |  |  |  |  | Area under the dose-response curve (AUC) (MCC13 cells (VN-MCC)): 404.5 and 430.7 and 432.5; Area under the dose-response curve (AUC) (MKL-1 cells (VP-MCC)): 437.3 and 438.4 and 450.7; Area under the dose-response curve (AUC) (MKL-2 cells (VP-MCC)): 441.0 and 431.1 and 445.6; Area under the dose-response curve (AUC) (WAGA cells (VP-MCC)): 454.8 and 457.0 and 435.6; Area under the dose-response curve (AUC) (MCC26 cells (VN-MCC)): 394.3 and 428.5 and 414.9; Area under the dose-response curve (AUC) (UISO cells (VN-MCC)): 410.4 and 435.6 and 412.5 |
